This passage reports Activity results from ChEMBL document CHEMBL2074006, “Induction of ABCC3 (MRP3) by pregnane X receptor activators” (Drug Metab Dispos, 2003).

Sequence of ATP-binding cassette sub-family C member 2 (Q8VI47 whole entry): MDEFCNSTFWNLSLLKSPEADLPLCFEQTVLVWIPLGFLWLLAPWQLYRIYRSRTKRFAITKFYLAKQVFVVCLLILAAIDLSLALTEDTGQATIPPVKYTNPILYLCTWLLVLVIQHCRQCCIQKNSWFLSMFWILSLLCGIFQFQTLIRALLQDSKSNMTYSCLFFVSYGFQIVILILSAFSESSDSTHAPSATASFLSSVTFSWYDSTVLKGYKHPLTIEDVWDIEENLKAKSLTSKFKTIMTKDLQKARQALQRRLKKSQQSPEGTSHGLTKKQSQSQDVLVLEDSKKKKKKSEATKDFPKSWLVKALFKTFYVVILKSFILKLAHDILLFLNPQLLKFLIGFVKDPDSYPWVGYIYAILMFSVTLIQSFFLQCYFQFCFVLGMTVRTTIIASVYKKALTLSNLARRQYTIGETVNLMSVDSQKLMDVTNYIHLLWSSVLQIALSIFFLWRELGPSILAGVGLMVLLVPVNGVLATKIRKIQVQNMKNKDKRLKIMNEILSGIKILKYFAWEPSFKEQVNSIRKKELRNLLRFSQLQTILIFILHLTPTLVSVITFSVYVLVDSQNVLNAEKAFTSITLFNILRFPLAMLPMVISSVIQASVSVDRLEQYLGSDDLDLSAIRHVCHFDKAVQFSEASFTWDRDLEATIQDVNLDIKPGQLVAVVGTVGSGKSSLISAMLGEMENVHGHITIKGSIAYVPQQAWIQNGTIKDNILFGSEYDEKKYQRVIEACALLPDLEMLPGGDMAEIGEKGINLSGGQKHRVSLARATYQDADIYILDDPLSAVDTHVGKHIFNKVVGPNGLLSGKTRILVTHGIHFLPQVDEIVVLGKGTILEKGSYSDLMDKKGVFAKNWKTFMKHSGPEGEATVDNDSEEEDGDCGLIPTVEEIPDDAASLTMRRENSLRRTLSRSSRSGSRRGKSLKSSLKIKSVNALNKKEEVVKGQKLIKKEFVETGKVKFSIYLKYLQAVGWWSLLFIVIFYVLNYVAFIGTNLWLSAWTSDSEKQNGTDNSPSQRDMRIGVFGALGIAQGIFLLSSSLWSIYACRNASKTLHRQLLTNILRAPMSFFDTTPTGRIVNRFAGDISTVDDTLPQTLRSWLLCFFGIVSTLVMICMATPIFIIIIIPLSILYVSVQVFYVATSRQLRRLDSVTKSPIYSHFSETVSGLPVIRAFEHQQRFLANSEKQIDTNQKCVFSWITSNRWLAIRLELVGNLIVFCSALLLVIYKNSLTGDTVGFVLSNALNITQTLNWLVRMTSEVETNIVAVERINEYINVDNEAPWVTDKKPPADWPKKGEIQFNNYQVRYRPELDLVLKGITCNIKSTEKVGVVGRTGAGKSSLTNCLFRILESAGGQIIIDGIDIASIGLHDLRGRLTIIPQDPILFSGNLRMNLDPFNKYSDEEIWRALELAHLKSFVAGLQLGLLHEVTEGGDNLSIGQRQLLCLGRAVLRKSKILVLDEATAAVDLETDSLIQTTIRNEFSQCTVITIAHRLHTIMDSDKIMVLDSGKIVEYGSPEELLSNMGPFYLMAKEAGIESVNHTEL

One series concerns the target ATP-binding cassette sub-family C member 2 (Mus musculus, UniProt Q8VI47). As to the kind of experiment: (§1) TP_TRANSPORTER: quantitative PCR in vivo, liver of mouse. It counts as functional, organism-based.
With `C#C[C@]1(O)CC[C@H]2[C@@H]3CCC4=CC(=O)CCC4=C3[C@@H](c3ccc(N(C)C)cc3)C[C@]21C`, the Activity result was “inducer []”.

Another series deals with ATP-binding cassette sub-family C member 3 (Mus musculus, UniProt B2RX12). The series is described as §1. Format: functional, organism-based.
Sequence of ATP-binding cassette sub-family C member 3 (B2RX12 whole entry): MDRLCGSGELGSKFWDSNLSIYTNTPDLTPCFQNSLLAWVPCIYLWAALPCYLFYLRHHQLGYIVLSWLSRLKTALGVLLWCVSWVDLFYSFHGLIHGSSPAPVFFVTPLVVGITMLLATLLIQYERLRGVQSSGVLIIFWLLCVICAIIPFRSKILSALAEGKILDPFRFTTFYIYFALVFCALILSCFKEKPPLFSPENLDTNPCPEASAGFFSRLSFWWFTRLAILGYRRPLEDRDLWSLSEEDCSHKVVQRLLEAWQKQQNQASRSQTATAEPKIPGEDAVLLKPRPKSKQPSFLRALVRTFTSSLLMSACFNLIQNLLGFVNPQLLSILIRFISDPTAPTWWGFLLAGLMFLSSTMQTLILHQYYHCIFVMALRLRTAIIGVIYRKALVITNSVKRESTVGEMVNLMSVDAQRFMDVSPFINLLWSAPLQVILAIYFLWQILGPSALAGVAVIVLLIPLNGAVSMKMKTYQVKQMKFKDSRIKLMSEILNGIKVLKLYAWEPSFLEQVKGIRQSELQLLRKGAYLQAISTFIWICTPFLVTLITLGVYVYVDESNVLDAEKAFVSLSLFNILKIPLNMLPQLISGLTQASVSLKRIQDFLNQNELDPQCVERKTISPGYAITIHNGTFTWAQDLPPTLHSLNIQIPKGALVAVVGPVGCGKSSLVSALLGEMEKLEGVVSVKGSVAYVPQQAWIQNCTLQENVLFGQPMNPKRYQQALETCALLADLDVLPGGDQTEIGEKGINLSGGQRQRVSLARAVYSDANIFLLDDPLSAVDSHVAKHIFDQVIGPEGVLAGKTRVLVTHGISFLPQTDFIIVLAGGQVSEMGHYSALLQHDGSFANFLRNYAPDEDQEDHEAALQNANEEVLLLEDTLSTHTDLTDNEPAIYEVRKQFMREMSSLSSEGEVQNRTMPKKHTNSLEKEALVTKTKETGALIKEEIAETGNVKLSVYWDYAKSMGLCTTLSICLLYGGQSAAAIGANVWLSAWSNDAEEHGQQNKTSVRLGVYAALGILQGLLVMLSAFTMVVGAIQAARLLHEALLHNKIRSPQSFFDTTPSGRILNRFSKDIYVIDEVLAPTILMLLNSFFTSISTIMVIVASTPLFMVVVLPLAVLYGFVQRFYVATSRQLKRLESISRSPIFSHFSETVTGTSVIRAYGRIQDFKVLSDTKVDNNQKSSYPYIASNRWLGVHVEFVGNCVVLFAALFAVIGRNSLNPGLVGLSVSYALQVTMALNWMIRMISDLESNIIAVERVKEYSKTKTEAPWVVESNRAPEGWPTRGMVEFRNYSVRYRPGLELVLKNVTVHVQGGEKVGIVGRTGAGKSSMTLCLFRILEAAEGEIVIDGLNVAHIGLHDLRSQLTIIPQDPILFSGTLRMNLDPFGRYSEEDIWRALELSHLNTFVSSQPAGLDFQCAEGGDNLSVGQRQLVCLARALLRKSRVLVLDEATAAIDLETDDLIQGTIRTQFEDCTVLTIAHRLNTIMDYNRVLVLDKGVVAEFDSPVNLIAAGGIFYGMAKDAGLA
Consider `Clc1ccccc1C(c1ccccc1)(c1ccccc1)n1ccnc1` [CLOTRIMAZOLE], for which the Activity entry is “inducer []”.
Still for that read-out and setting: as for `COC(=O)C1=C(C)NC(C)=C(C(=O)OC)C1c1ccccc1[N+](=O)[O-]` [NIFEDIPINE], the entry is “inducer []”.
Still for that read-out and setting: then `CC(=O)[C@H]1[C@H](C#N)C[C@H]2[C@@H]3CC=C4C[C@@H](O)CC[C@]4(C)[C@H]3CC[C@@]21C` [PREGNENOLONE CARBONITRILE], with “inducer []”.
Turning to `C[C@H](CCC(=O)O)[C@H]1CC[C@H]2[C@@H]3CC[C@@H]4C[C@H](O)CC[C@]4(C)[C@H]3CC[C@]12C` [LITHOCHOLIC ACID], the Activity entry was “inducer []”.
The same measure, in the same setting: then `CC(C)(C(=O)c1cccnc1)c1cccnc1` [METYRAPONE], with “inducer []”; and `C#C[C@]1(O)CC[C@H]2[C@@H]3CCC4=CC(=O)CCC4=C3[C@@H](c3ccc(N(C)C)cc3)C[C@]21C`, with “inducer []”.
On the same count and under the same terms, then `CO[C@H]1/C=C/O[C@@]2(C)Oc3c(C)c(O)c4c(O)c(c(/C=N/N5CCN(C)CC5)c(O)c4c3C2=O)NC(=O)/C(C)=C\C=C\[C@H](C)[C@H](O)[C@@H](C)[C@@H](O)[C@@H](C)[C@H](OC(C)=O)[C@@H]1C` [RIFAMPIN], with “inducer []”.
